Measured values taken from patent publication US20070197512A1, “Carboxylic Acid Compounds and Use Thereof” (Japan Tobacco Inc., priority 2006, published 2007).

Biological target: T1, human URAT1 (Homo sapiens, UniProt Q96S37)
T1 construct: Human URAT1 full length cDNA was subcloned to expression vector pcDNA3.1; expressed in transfected cells; host or cells: HEK293 cells (pcDNA3.1, geneticin-selected)
T1 sequence (Q96S37 1-553): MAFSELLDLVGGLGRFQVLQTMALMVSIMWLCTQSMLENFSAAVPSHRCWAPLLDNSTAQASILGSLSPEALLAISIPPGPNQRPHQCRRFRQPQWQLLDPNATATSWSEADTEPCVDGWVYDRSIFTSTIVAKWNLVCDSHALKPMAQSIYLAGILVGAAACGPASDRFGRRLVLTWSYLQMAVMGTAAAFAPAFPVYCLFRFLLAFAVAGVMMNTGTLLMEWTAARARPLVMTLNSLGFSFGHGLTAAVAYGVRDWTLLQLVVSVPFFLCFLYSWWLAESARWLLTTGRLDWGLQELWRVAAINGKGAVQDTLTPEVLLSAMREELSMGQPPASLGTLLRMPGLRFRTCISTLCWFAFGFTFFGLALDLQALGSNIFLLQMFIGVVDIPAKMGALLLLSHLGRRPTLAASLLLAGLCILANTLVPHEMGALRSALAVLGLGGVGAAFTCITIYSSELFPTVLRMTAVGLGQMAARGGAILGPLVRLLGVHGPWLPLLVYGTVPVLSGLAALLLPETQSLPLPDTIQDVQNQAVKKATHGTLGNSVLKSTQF
Test: Uric acid transport inhibitory test using human URAT1-expressing cells
Format: cell-based
Conditions: human URAT1-expressing HEK293 cells, 14C-uric acid 50 μM, uptake 5 min, room temperature; read-out: hURAT1 IC50
Source text: Experimental Example 1 Uric Acid Transport Inhibitory Test Using Human URAT1-Expressing Cells
Human URAT1 full length cDNA was subcloned to expression vector pcDNA3.1 and human URAT1 gene was transfected into human embryonic kidney derived cell line (HEK293 cells) by liposome method using Lipofectamine2000. Simultaneously, HEK293 cells transfected with expression vector pcDNA3.1 alone (hereinafter mock cells) were also produced. HEK293 cells expressing human URAT1 gene or mock cells were selected with geneticin resistance as an index. The functional expression of human URAT1 gene was confirmed by a method similar to the following method, using ^14C-uric acid transport into the cells as an index.
Human URAT1-expressing HEK293 cells or mock cells were cultured in Dulbecco's modified Eagle's MEM medium (high glucose) containing 10% fetal bovine serum, 0.5 mg/mL geneticin sulfate, 100 units/mL penicillin and 100 μg/mL streptomycin under the conditions of 37° C. and 5% CO2 in an incubator. The cells were plated in a 96 well plate (poly-D-Lysine coated) at 1×10^5 cells/well and the following uric acid transport inhibitory test was performed 24 hr later. This test was performed at room temperature.
After the medium was removed by aspiration from each well, the cells were washed once with Hank's Balanced Salt Solution (HBSS) and preincubated with HBSS (100 μL/well) for 5 min. HBSS was aspirated and an assay buffer (wherein NaCl in the above-mentioned HBSS had been substituted with Na-gluconate) containing various concentrations of the Example compound and a radioactive ligand (14C-uric acid; final concentration 50 μM) was added to each well at 50 μL/well and an uptake reaction was carried out for 5 min. After the reaction, the cells were washed twice with ice-cold HBSS (150 μL/well), and Microscinti™ 20 (PerkinElmer) was added at 50 μL/well. The cells were lysed by stirring and the radioactivity of each well was measured by a liquid scintillation counter (TOP COUNT, Packard).
The uric acid transport rate (%) of the Example compound at each concentration was calculated relative to the radioactivity (difference in radioactivity between human URAT1-expressing HEK293 cells and mock cells without addition of Example compound (DMSO addition)) showing URAT1 specific uric acid transport as 100%, and the concentration (IC50) of the Example compound necessary for inhibiting the uric acid transport rate by 50% was determined. In Table 24-Table 27, “+++” means IC50 value of less than 300 nM, “++” means IC50 value of 300 nM to less than 3000 nM, and “+” means IC50 value of not less than 3000 nM.

| SMILES | IC50 |
| --- | --- |
| Cc1ccc2c(c1)OC(c1ccccc1)C(=O)N2CCC(=O)O (stereo not shown) [Example 48, 3-(7-methyl-3-oxo-2-phenyl-2,3-dihydrobenzo[1,4]oxazin-4-yl)propionic acid] | ≥ 3 µM |
| O=C(O)CCN1C(=O)C(c2ccccc2)Oc2ccc(Cl)cc21 (stereo not shown) [Example 77, 3-(6-chloro-3-oxo-2-phenyl-2,3-dihydrobenzo[1,4]oxazin-4-yl)propionic acid] | ≥ 3 µM |
| Cc1ccc2c(c1)OC(c1ccccc1)CN2C(=O)/C=C/C(=O)O (stereo not shown) [Example 57, (E)-4-(7-methyl-2-phenyl-2,3-dihydrobenzo[1,4]oxazin-4-yl)-4-oxo-2-butenoic acid] | ≥ 3 µM |
| Cc1cc(C)c2c(c1)N(CCC(=O)O)C(=O)C(C)(C)O2 [Example 89, 3-(2,2,6,8-tetramethyl-3-oxo-2,3-dihydrobenzo[1,4]oxazin-4-yl)propionic acid] | ≥ 3 µM |
| CC(C)c1cccc2c1OC(C)(C)C(=O)N2CCC(=O)O [Example 33, 3-(8-isopropyl-2,2-dimethyl-3-oxo-2,3-dihydrobenzo[1,4]oxazin-4-yl)propionic acid] | ≥ 3 µM |
| Cc1cc(C)c2c(c1)N(CCC(=O)O)C(=O)CO2 [Example 82, 3-(6,8-dimethyl-3-oxo-2,3-dihydrobenzo[1,4]oxazin-4-yl)propionic acid] | ≥ 3 µM |
| CC(C)c1cccc2c1OC(C(C)C)CN2C(=O)CC(=O)O (stereo not shown) [Example 31, 3-(2,8-diisopropyl-2,3-dihydrobenzo[1,4]oxazin-4-yl)-3-oxopropionic acid] | ≥ 3 µM |
| CC(C)C1Oc2c(C3CCCCC3)cccc2N(CCC(=O)O)C1=O (stereo not shown) [Example 50, 3-(8-cyclohexyl-2-isopropyl-3-oxo-2,3-dihydrobenzo[1,4]oxazin-4-yl)propionic acid] | ≥ 3 µM |
| O=C(O)CCC(=O)N1CCOc2ccccc21 [Example 23, 4-(2,3-dihydrobenzo[1,4]oxazin-4-yl)-4-oxobutyric acid] | ≥ 3 µM |
| O=C(O)/C=C/C(=O)N1CC(c2ccccc2)Oc2ccc(Cl)cc21 (stereo not shown) [Example 71, (E)-4-(6-chloro-2-phenyl-2,3-dihydrobenzo[1,4]oxazin-4-yl)-4-oxo-2-butenoic acid] | ≥ 3 µM |
| CC(C)c1cccc2c1OC(C(C)C)C(=S)N2CCCC(=O)O (stereo not shown) [Example 20, 4-(2,8-diisopropyl-3-thioxo-2,3-dihydrobenzo[1,4]oxazin-4-yl)butyric acid] | ≥ 3 µM |
| CC(C)C1CN(C(=O)/C=C/C(=O)O)c2cccc(Br)c2O1 (stereo not shown) [Example 78, (E)-4-(8-bromo-2-isopropyl-2,3-dihydrobenzo[1,4]oxazin-4-yl)-4-oxo-2-butenoic acid] | ≥ 3 µM |
| O=C(O)CCCC(=O)N1CCOc2ccccc21 [Example 24, 5-(2,3-dihydrobenzo[1,4]oxazin-4-yl)-5-oxovaleric acid] | ≥ 3 µM |
| COC(=O)CN1C(=O)CSc2ccccc21 [Example 2, (3-oxo-2,3-dihydrobenzo[1,4]thiazin-4-yl)acetic acid methyl ester] | ≥ 3 µM |

The remaining lines, values ahead:

| IC50 | SMILES |
| --- | --- |
| ≥ 3 µM | Cc1cc(C)c2c(c1)N(C(=O)/C=C/C(=O)O)CCO2 [Example 85, (E)-4-(6,8-dimethyl-2,3-dihydrobenzo[1,4]oxazin-4-yl)-4-oxo-2-butenoic acid] |
| ≥ 3 µM | CC(C)c1cccc2c1OC(C(C)C)CN2C(=O)CCC(=O)O (stereo not shown) [Example 21, 4-(2,8-diisopropyl-2,3-dihydrobenzo[1,4]oxazin-4-yl)-4-oxobutyric acid] |
| ≥ 3 µM | CC1(C)Oc2ccccc2N(CC(=O)O)C1=S [Example 11, (2,2-dimethyl-3-thioxo-2,3-dihydrobenzo[1,4]oxazin-4-yl)acetic acid] |
| ≥ 3 µM | CC(C)c1cccc2c1OC(C(C)C)C(=O)N2Cc1ccccc1C(=O)O (stereo not shown) [Example 41, 2-[(2,8-diisopropyl-3-oxo-2,3-dihydrobenzo[1,4]oxazin-4-yl)methyl]benzoic acid] |
| 0.3 to 3 µM | CCC1Oc2c(C(C)C)cccc2N(CCC(=O)O)C1=O (stereo not shown) [Example 40, 3-(2-ethyl-8-isopropyl-3-oxo-2,3-dihydrobenzo[1,4]oxazin-4-yl)propionic acid] |
| 0.3 to 3 µM | CC(C)C1Sc2ccccc2N(CCC(=O)O)C1=O (stereo not shown) [Example 22, 3-(2-isopropyl-3-oxo-2,3-dihydrobenzo[1,4]thiazin-4-yl)propionic acid] |
| < 0.3 µM | Cc1cc(C)c2c(c1)N(CCC(=O)O)C(=O)C(C(C)C)O2 (stereo not shown) [Example 61, 3-(2-isopropyl-6,8-dimethyl-3-oxo-2,3-dihydrobenzo[1,4]oxazin-4-yl)propionic acid] |
| 0.3 to 3 µM | CC(C)c1cccc2c1OC(C(C)C)C(=O)N2CC(C)(C)C(=O)O (stereo not shown) [Example 42, 3-(2,8-diisopropyl-3-oxo-2,3-dihydrobenzo[1,4]oxazin-4-yl)-2,2-dimethylpropionic acid] |
| < 0.3 µM | CC(C)C1Oc2c(Cl)cc(Cl)cc2N(CCC(=O)O)C1=O (stereo not shown) [Example 80, 3-(6,8-dichloro-2-isopropyl-3-oxo-2,3-dihydrobenzo[1,4]oxazin-4-yl)propionic acid] |
| < 0.3 µM | Cc1cc(Cl)c2c(c1)N(CCC(=O)O)C(=O)C(C(C)C)O2 (stereo not shown) [Example 98, 3-(8-chloro-2-isopropyl-6-methyl-3-oxo-2,3-dihydrobenzo[1,4]oxazin-4-yl)propionic acid] |
| 0.3 to 3 µM | CC(C)C1Oc2cc(Cl)ccc2N(CCC(=O)O)C1=O (stereo not shown) [Example 62, 3-(7-chloro-2-isopropyl-3-oxo-2,3-dihydrobenzo[1,4]oxazin-4-yl)propionic acid] |
| 0.3 to 3 µM | CCc1cccc2c1OC(C(C)C)C(=O)N2CCC(=O)O (stereo not shown) [Example 53, 3-(8-ethyl-2-isopropyl-3-oxo-2,3-dihydrobenzo[1,4]oxazin-4-yl)propionic acid] |
| < 0.3 µM | COc1cc(C)c2c(c1)N(CCC(=O)O)C(=O)C(C(C)C)O2 (stereo not shown) [Example 104, 3-(2-isopropyl-6-methoxy-8-methyl-3-oxo-2,3-dihydrobenzo[1,4]oxazin-4-yl)propionic acid] |
| 0.3 to 3 µM | CC(C)c1cccc2c1O[C@@H](C(C)C)C(=S)N2CC(=O)O [Example 7, ((S)-2,8-diisopropyl-3-thioxo-2,3-dihydrobenzo[1,4]oxazin-4-yl)acetic acid] |
| 0.3 to 3 µM | Cc1cccc2c1OC(c1ccccc1)C(=O)N2CCC(=O)O (stereo not shown) [Example 47, 3-(8-methyl-3-oxo-2-phenyl-2,3-dihydrobenzo[1,4]oxazin-4-yl)propionic acid] |
| < 0.3 µM | CC(C)C1Oc2c(Cl)cccc2N(CCC(=O)O)C1=O (stereo not shown) [Example 100, 3-(8-chloro-2-isopropyl-3-oxo-2,3-dihydrobenzo[1,4]oxazin-4-yl)propionic acid] |
| 0.3 to 3 µM | CC(C)C1Oc2ccc(C(C)(C)C)cc2N(CCC(=O)O)C1=O (stereo not shown) [Example 88, 3-(6-tert-butyl-2-isopropyl-3-oxo-2,3-dihydrobenzo[1,4]oxazin-4-yl)propionic acid] |
| 0.3 to 3 µM | CC(C)(C)c1cccc2c1OC(c1ccccc1)C(=O)N2CCC(=O)O (stereo not shown) [Example 49, 3-(8-tert-butyl-3-oxo-2-phenyl-2,3-dihydrobenzo[1,4]oxazin-4-yl)propionic acid] |
| 0.3 to 3 µM | O=C(O)CCN1C(=O)C(c2ccccc2)Oc2c(Br)cccc21 (stereo not shown) [Example 66, 3-(8-bromo-3-oxo-2-phenyl-2,3-dihydrobenzo[1,4]oxazin-4-yl)propionic acid] |
| 0.3 to 3 µM | CC(C)C1Oc2ccc([N+](=O)[O-])cc2N(CCC(=O)O)C1=O (stereo not shown) [Example 96, 3-(2-isopropyl-6-nitro-3-oxo-2,3-dihydrobenzo[1,4]oxazin-4-yl)propionic acid] |
